Here are results for 13 compounds from patent US5041447A, “Oxetanocin-related compounds and pharmaceutical compositions containing them” (priority 1988, dated 1991).

The IC50 is the midpoint of a concentration-inhibition curve.

Values after ≈ are worked out from the molar mass of the structure shown. Some results are limits rather than exact numbers.

Test [1] relates to HIV (human immunodeficiency virus). As to the kind of experiment: Anti-HIV activity: development of virus antigen in HIV-infected MT-4 cells (indirect fluorescent antibody method). As to conditions: 4 days, DMSO only 80 to 90%. In kind it is cell-based. As to the method:
Anti-HIV (human immunodeficiency virus) activity
MT-4 cell (about 100,000 cells/ml) was added into a 24 well tray, and then 100 microliters of a solution containing a predetermined quantity of a compound of this invention was added. After culturing it at 37° C. for 5 hours in 5% (v/v) carbon dioxide incubator, 10^3 to 10^4 infection units of HIV was added and cultured for 4 days. Then, a part of the cultured fluid was coated onto a slide glass and immobilized with acetone, after which development of virus antigen was observed by indirect fluorescent antibody method.
As the primary antibody of the fluorescent antibody method, a serum of AIDS patient was used. As its secondary antibody, FITC-labelled […] was used.

Test [2] relates to cytomegalovirus (A0169 strain). As to the kind of experiment: Anti-cytomegalovirus activity: plaque formation in human fetal fibroblasts. It is filed as cell-based. Particulars: Human betaherpesvirus 5, Fibroblast, 240 h, 100 PFU, 37° C., 10 days. As to the method: Anti-cytomegalovirus activity was determined in the following manner. Thus, a 35 mm.phi. dish containing a single layer of human fetal fibroblasts was infected with 100 PFU (plaque forming units) of cytomegalovirus (A0169 strain). After adsorption for one hour, a medium (0.5% agarose, 2% fetal calf serum) containing a varied concentration of the compound of this invention was superposed thereon, and the whole was cultured at 37° C. for 10 days in 5% (v/v) carbon dioxide incubator, after which the formation of plaque was measured. The results are shown in Table 3 in terms of 50% inhibitory value (IC50).

As to `Nc1ncnc2c1ncn2[C@H]1C[C@@H](CO)O1` [Compound No. 1], the “Development of virus antigen (%)” value in test [1] (3 μg/ml) is 0.1%; in test [1] (10 μg/ml), less than 0.1%; in test [1] (100 μg/ml), less than 0.1%.
Regarding `[N-]=[N+]=NC[C@H]1[C@H](n2cnc3c(N)ncnc32)O[C@@H]1CO` [Compound No. 2], the “Development of virus antigen (%)” value in test [1] (3 μg/ml) was 15%; in test [1] (10 μg/ml), 10%; in test [1] (100 μg/ml), less than 0.1%.
With `Nc1ncnc2c1ncn2[C@@H]1O[C@H](CO)[C@@H]1O` [Compound No. 3], the figures for the “Development of virus antigen (%)” value in test [1] (3 μg/ml), in test [1] (10 μg/ml) and in test [1] (100 μg/ml) were 1%, 0.1% and less than 0.1%, respectively.
On to `C=C1[C@H](n2cnc3c(N)ncnc32)O[C@@H]1CO` [Compound No. 4], for which the “Development of virus antigen (%)” value in test [1] (3 μg/ml) is listed as 10%; in test [1] (10 μg/ml), 3%; in test [1] (100 μg/ml) it was less than 0.1%.
As for `CCCCC(=O)OC[C@H]1O[C@@H](n2cnc3c(N)ncnc32)[C@@H]1CO` [Compound No. 8], the “Development of virus antigen (%)” value in test [1] (3 μg/ml) is given as 5%; in test [1] (10 μg/ml), 3%; in test [1] (100 μg/ml) it was less than 0.1%.
`CCCCCCCCCCCCCCCC(=O)OC[C@H]1O[C@@H](n2cnc3c(N)ncnc32)[C@@H]1CO` [Compound No. 9]: the “Development of virus antigen (%)” value in test [1] (3 μg/ml) is listed as 7%; in test [1] (10 μg/ml), 3%; in test [1] (100 μg/ml), less than 0.1%. In test [2], this compound displayed a half-inhibitory concentration (IC50) of 1.7 µg/mL (≈ 3.47 µM).
Turning to `Nc1ncnc2c1ncn2[C@@H]1O[C@H](CO)[C@H]1F` [Compound No. 10], the “Development of virus antigen (%)” value in test [1] (3 μg/ml) is greater than 90%; in test [1] (10 μg/ml), 50%; in test [1] (100 μg/ml) it was less than 0.1%.
In the same order, the values of `[N-]=[N+]=N[C@H]1[C@H](n2cnc3c(N)ncnc32)O[C@@H]1CO` [Compound No. 11] are greater than 90%, 75% and less than 0.1%.
As for `O=c1[nH]cnc2c1ncn2[C@H]1C[C@@H](CO)O1` [Compound No. 13], the “Development of virus antigen (%)” value in test [1] (3 μg/ml), in test [1] (10 μg/ml) and in test [1] (100 μg/ml) was less than 0.1% in each case.
As for `CCCCC(=O)OC[C@H]1O[C@@H](n2cnc3c(=O)[nH]c(N)nc32)[C@@H]1CO` [Compound No. 14], the IC50 in test [2] was greater than 5 µg/mL.
On the same count and under the same terms, under `CCCCC(=O)OC[C@H]1O[C@@H](n2cnc3c(N)nc(N)nc32)[C@@H]1CO` [Compound No. 15] stands greater than 5 µg/mL.
With `Nc1ncnc2c1ncn2[C@@H]1O[C@H](CO)[C@H]1N` [Compound No. 16], the figures for the “Development of virus antigen (%)” value in test [1] (3 μg/ml), in test [1] (10 μg/ml) and in test [1] (100 μg/ml) were 17%, 6% and less than 0.1%, respectively.
In the same order, the values of `O=c1[nH]cnc2c1ncn2[C@@H]1O[C@H](CO)[C@H]1COS(=O)(=O)O` [Compound No. 17] are 60%, 10% and less than 0.1%.
